Results as given in ChEMBL document CHEMBL4321854, “Discovery of a First-in-Class Mitogen-Activated Protein Kinase Kinase 1/2 Degrader” (J Med Chem, 2019).
Calls of active or inactive are those of the source. No cut-off for these calls is given here.

Key:
[1] = Ratio of Plasma concentration in Swiss albino mouse at 50 mg/kg, ip measured after 8 hrs to GI50 for antiproliferative activity against human UACC257 cells; assay type: organism-based; conditions: in vivo
[2] = target: T1, von Hippel-Lindau disease tumor suppressor/Dual specificity mitogen-activated protein kinase kinase 2/Dual specificity mitogen-activated protein kinase kinase 1 (Homo sapiens) (UniProt P36507+Q02750+P40337); assay: Protac activity against VHL/MEK1/2 in human HT-29 cells harboring with BRAF V600E variant assessed as phosphorylation of ERK at T202/Y204 residues at 0.3 uM pretreated with NEDD8-activating enzyme inhibitor, MLN4924 for 2 hrs followed by incubation with compound for 10 hrs by Western blot analysis; assay type: cell-based
[3] = target: T2, von Hippel-Lindau disease tumor suppressor/Dual specificity mitogen-activated protein kinase kinase 2 (Homo sapiens) (UniProt P36507+P40337); assay: Protac activity against VHL/MEK2 in human HT-29 cells harboring with BRAF V600E variant assessed as degradation of MEK2 by measuring MEK2 protein level at 0.3 uM pretreated with MEK1/2 inhibitor, PD0325901 for 2 hrs followed by incubation with compound for 10 hrs by Western blot analysis; assay type: cell-based
[4] = target: T2, von Hippel-Lindau disease tumor suppressor/Dual specificity mitogen-activated protein kinase kinase 2 (Homo sapiens); assay: (§1) Protac activity against VHL/MEK2 in human UACC257 cells harboring BRAF V600E variant assessed as degradation of MEK2 after 24 hrs by Western blot analysis; assay type: cell-based
[5] = target: von Hippel-Lindau disease tumor suppressor/Dual specificity mitogen-activated protein kinase kinase 2 (Homo sapiens, UniProt P36507+P40337, V600E); assay: as §1; assay type: cell-based
[6] = target: T3, von Hippel-Lindau disease tumor suppressor/Dual specificity mitogen-activated protein kinase kinase 1 (Homo sapiens) (UniProt Q02750+P40337); assay: Protac activity against VHL/MEK1 in human SK-MEL-28 cells harboring with BRAF V600E variant assessed as degradation of MEK1 at 3 to 5 uM after 24 hrs by Western blot analysis; assay type: cell-based
HT-29 = assay: Inhibition of colony formation in human HT-29 cells at 10 to 100 nM supplemented with fresh medium containing compound every 3 days for 14 days by crystal violet staining based assay; assay type: functional, cell-based
[7] = target: von Hippel-Lindau disease tumor suppressor/Dual specificity mitogen-activated protein kinase kinase 1 (Homo sapiens, UniProt Q02750+P40337, V600E); assay: (§2) Protac activity against VHL/MEK1 in human SK-MEL-28 cells harboring BRAF V600E variant assessed as degradation of MEK1 after 24 hrs by Western blot analysis; assay type: cell-based
[8] = target: T3, von Hippel-Lindau disease tumor suppressor/Dual specificity mitogen-activated protein kinase kinase 1 (Homo sapiens); assay: as §2; assay type: cell-based
[9] = target: T1, von Hippel-Lindau disease tumor suppressor/Dual specificity mitogen-activated protein kinase kinase 2/Dual specificity mitogen-activated protein kinase kinase 1 (Homo sapiens); assay: Protac activity against VHL/MEK1/2 in human UACC257 cells harboring with BRAF V600E variant assessed as reduction in phosphorylation of ERK at T202/Y204 residues after 24 hrs by Western blot analysis; assay type: cell-based
SK-MEL-28 = assay: Effect on total ERK protein expression in human SK-MEL-28 cells at 0.001 to 5 uM after 24 hrs by Western blot analysis; assay type: functional, cell-based
[10] = target: T2, von Hippel-Lindau disease tumor suppressor/Dual specificity mitogen-activated protein kinase kinase 2 (Homo sapiens); assay: Protac activity against VHL/MEK2 in human HT-29 cells harboring with BRAF V600E variant assessed as degradation of MEK2 at 0.1 to 0.3 uM after 4 hrs by Western blot analysis; assay type: cell-based

T2 sequence (P36507 whole entry, looked up): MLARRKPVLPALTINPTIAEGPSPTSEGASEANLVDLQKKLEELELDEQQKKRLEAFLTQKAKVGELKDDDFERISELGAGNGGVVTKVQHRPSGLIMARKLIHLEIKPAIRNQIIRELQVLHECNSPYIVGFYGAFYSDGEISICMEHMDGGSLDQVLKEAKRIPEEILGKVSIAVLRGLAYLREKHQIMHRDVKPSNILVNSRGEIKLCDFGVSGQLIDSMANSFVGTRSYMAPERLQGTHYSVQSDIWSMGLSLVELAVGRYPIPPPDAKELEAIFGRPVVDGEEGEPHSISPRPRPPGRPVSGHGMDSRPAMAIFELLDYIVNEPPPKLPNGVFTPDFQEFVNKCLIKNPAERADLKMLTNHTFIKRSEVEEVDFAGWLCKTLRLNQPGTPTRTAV
T2 sequence (P40337 whole entry, looked up): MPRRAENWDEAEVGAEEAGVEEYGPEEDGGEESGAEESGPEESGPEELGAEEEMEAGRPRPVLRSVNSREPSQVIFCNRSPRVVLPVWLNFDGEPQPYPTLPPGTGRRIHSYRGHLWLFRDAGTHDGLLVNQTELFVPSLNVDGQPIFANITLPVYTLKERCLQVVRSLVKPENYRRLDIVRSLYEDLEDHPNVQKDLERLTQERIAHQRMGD
T3 sequence (P40337 whole entry, looked up): as above
T3 sequence (Q02750 whole entry, looked up): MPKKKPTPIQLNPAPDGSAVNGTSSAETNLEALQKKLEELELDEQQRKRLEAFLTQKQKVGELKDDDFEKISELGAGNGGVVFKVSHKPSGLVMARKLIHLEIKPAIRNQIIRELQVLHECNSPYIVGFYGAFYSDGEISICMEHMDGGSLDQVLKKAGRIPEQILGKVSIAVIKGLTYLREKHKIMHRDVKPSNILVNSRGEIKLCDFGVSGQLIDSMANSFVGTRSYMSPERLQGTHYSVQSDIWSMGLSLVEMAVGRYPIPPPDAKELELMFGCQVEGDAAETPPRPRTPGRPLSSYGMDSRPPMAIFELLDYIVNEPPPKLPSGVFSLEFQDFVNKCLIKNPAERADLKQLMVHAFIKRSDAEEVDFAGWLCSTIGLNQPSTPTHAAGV
T1 sequence (P36507 whole entry, looked up): as the sequence (P36507 whole entry, looked up) above
T1 sequence (P40337 whole entry, looked up): as the sequence (P40337 whole entry, looked up) above
T1 sequence (Q02750 whole entry, looked up): as the sequence (Q02750 whole entry, looked up) above
von Hippel-Lindau disease tumor suppressor/Dual specificity mitogen-activated protein kinase kinase 1, sequence (P40337 whole entry, looked up, stated change not applied): as the sequence (P40337 whole entry, looked up) above
von Hippel-Lindau disease tumor suppressor/Dual specificity mitogen-activated protein kinase kinase 1, sequence (Q02750 whole entry, looked up, stated change not applied): as the sequence (Q02750 whole entry, looked up) above
von Hippel-Lindau disease tumor suppressor/Dual specificity mitogen-activated protein kinase kinase 2, sequence (P36507 whole entry, looked up, stated change not applied): as the sequence (P36507 whole entry, looked up) above
von Hippel-Lindau disease tumor suppressor/Dual specificity mitogen-activated protein kinase kinase 2, sequence (P40337 whole entry, looked up, stated change not applied): as the sequence (P40337 whole entry, looked up) above

Cc1ncsc1-c1ccc([C@H](C)NC(=O)[C@@H]2C[C@@H](O)CN2C(=O)[C@@H](NC(=O)CCCCCCCCCCNCCCONC(=O)c2ccc(F)c(F)c2Nc2ccc(I)cc2F)C(C)(C)C)cc1
Ratio [1]: 3 to 20 | Activity [2]: inactive | Activity [3]: inactive | Activity [4]: Dose-dependent effect | DC50 [5]: 27 nM | Activity [6]: Active | inhibition (HT-29): Active | DC50 [7]: 31 nM | Activity [8]: Dose-dependent effect | Activity [9]: Dose-dependent effect | Activity (SK-MEL-28): inactive | Activity [10]: Active
